The source of these data is US8871753B2, “Macrocyclic compounds and their use as kinase inhibitors” (Incyte Corporation, priority 2008, dated 2014).

Each structure is given as a SMILES string.

Common to all, as to type: biochemical
One test has as its target TYK2 (Homo sapiens, UniProt P29597). Briefly: TYK2 kinase inhibition (Table A1).
Test [1] addresses T1, human JAK2 (a.a. 828-1132) (Homo sapiens, UniProt O60674).
T1 construct: JAK2 (a.a. 828-1132); His tag (N); made in house; host or cells: insect cells (baculovirus)
Description: In vitro JAK kinase assay (HTRF, phosphorylation of a biotinylated peptide), JAK2. The note with it: method AA1 (30 μM ATP) or AA2 (1000 μM ATP), not stated per value. A digest of the protocol: (§1)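 Phosphorylation of a biotinylated peptide by the JAK kinase domain, detected by HTRF with Eu-Py20 and SA-APC. ATP was 90 μM for JAK1, 30 μM for JAK2 and 3 μM for JAK3. Reactions ran 1 h at room temperature and were stopped with EDTA, followed by 40 min antibody binding.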
On the technique in general: In TR-FRET formats the signal depends on donor and acceptor labels being close together.

The target in test [2] is T2, Recombinant Human Anaplastic Lymphoma Kinase (Homo sapiens, UniProt Q9UM73).
T2 construct: purchased Invitrogen, Carlsbad, Calif
Description: ALK HTRF kinase assay. The following applies: compound at 500 nM or 1 mM; 90 μM ATP. In a few lines:
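IC50 was obtained from a logistic fit of signal versus log inhibitor concentration, using pre- and post-transition baselines and a Hill slope. The signal reported tyrosine phosphorylation of a biotinylated peptide by recombinant human kinase, detected as Eu-to-APC energy transfer.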

In test [3] the target is T3, human JAK1 (a.a. 837-1142) (Homo sapiens, UniProt P23458).
T3 construct: human JAK1 (a.a. 837-1142); His tag (N); made in house; host or cells: insect cells (baculovirus)
Description: In vitro JAK kinase assay (HTRF, phosphorylation of a biotinylated peptide), JAK1. The note with it: method AA1 (90 μM ATP) or AA2 (1000 μM ATP), not stated per value; read-out: JAK1 IC50. In a few lines: as §1

The target in test [4] is T4, human JAK3 (a.a. 781-1124) (Homo sapiens, UniProt P52333).
T4 construct: JAK3 (a.a. 781-1124); His tag (N); made in house; host or cells: insect cells (baculovirus)
Description: In vitro JAK kinase assay (HTRF, phosphorylation of a biotinylated peptide), JAK3. The following applies: method AA1 (3 μM ATP) or AA2 (1000 μM ATP), not stated per value. In a few lines: as §1

T4 sequence (P52333 781-1124): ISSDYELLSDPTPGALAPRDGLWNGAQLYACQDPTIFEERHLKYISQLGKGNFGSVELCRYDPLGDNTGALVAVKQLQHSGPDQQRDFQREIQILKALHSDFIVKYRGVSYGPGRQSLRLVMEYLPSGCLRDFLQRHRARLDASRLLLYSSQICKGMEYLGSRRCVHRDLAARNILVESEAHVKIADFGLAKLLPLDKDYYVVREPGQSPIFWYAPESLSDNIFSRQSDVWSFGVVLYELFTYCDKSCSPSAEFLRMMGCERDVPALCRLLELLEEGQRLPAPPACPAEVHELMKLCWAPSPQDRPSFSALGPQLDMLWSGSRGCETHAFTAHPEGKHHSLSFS
T1 sequence (O60674 828-1132): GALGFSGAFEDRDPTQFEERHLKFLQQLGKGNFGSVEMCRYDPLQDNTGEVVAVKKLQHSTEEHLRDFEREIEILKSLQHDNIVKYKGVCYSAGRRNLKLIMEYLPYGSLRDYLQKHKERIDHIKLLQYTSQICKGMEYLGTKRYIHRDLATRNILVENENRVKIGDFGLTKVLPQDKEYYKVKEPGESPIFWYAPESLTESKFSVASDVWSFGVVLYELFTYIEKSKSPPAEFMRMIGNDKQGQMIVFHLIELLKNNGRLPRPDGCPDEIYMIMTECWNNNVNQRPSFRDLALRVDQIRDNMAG
TYK2, sequence (P29597 whole entry): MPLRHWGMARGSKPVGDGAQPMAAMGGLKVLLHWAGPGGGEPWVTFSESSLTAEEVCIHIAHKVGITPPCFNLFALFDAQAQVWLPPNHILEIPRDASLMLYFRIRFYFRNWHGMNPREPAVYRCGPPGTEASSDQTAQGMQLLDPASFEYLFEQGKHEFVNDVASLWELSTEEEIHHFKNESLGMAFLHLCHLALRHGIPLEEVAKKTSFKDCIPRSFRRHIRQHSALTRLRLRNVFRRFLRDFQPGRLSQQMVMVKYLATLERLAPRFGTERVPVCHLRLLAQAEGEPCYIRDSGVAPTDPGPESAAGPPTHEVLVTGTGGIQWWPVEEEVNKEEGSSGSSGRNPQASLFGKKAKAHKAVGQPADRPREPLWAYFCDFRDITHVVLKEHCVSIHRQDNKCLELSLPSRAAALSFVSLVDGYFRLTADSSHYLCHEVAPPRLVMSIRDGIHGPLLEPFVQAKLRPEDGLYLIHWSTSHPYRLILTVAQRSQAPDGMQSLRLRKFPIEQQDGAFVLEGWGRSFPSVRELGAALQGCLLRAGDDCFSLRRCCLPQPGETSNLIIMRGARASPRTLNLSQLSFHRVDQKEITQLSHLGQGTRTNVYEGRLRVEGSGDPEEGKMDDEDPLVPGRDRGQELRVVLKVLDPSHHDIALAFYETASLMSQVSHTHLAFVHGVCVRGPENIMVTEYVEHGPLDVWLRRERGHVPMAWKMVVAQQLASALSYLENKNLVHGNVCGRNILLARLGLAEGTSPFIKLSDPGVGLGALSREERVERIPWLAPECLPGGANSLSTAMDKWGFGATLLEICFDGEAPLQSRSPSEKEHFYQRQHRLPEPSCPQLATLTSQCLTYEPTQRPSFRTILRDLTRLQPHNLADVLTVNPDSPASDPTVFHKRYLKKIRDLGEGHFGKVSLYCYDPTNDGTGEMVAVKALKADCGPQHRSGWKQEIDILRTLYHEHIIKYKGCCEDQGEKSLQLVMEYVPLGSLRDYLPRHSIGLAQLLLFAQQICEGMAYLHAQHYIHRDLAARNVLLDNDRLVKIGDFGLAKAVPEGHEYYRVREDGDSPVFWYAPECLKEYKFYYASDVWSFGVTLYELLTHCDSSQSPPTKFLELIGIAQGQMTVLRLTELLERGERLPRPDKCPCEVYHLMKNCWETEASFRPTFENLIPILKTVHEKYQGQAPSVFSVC
T2 sequence (Q9UM73 19-1620): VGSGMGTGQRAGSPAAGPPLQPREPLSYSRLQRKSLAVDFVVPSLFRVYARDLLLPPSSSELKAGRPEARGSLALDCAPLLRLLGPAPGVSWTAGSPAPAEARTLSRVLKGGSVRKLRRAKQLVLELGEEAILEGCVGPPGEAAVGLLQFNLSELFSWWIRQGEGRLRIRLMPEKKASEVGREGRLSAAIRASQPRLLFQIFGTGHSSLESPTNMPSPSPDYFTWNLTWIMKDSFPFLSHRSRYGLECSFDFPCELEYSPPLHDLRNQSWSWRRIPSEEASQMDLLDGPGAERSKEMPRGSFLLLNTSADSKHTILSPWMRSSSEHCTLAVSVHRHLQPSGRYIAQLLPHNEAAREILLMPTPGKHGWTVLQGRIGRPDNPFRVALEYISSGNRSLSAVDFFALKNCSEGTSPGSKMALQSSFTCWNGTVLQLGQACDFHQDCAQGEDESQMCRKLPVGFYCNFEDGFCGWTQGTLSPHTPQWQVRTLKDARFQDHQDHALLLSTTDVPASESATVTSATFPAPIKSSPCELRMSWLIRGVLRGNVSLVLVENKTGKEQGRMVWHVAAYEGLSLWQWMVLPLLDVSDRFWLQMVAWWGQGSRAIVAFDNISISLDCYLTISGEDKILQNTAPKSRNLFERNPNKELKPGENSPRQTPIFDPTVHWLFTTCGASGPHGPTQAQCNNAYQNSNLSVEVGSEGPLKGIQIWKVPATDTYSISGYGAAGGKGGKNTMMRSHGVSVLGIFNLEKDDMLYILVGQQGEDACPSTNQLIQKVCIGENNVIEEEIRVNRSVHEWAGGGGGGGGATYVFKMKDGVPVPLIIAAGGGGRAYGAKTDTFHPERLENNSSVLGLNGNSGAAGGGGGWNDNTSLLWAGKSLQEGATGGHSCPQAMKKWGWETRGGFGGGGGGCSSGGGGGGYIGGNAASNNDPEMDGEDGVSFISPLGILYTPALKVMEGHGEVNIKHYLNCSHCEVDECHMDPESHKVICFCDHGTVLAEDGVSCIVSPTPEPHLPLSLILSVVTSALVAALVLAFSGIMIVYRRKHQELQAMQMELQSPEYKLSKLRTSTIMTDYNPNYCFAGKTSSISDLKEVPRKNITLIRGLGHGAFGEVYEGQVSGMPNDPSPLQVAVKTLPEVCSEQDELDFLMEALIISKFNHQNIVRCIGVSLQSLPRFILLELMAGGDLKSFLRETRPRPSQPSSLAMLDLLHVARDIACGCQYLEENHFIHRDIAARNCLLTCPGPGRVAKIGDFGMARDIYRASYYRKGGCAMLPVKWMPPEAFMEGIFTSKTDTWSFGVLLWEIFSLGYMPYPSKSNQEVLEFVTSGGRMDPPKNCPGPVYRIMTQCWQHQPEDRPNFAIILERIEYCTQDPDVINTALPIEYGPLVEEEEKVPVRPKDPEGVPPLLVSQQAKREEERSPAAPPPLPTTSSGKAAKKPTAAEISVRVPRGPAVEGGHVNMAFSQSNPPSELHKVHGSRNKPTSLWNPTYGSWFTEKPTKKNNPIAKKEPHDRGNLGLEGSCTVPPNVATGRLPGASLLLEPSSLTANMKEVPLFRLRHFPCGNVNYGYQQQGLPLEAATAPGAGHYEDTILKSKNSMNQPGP
T3 sequence (P23458 849-1154): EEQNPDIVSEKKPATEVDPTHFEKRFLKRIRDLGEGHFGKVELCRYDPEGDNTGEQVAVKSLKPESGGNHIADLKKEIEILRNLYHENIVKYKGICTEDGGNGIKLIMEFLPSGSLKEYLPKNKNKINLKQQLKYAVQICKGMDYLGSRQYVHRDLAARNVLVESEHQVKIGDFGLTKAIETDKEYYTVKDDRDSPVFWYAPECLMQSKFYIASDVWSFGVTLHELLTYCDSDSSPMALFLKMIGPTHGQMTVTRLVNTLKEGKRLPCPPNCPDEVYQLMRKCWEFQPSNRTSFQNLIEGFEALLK

As usually defined, the IC50 is the concentration that gives 50% inhibition. Consider `Cc1ccccc1NC(=O)N1CCC(CC(=O)Nc2ccc3cc2CCc2cncc(c2)Nc2ncc(Cl)c(n2)N3)CC1` [Example A149, 4-(2-{[6-Chloro-2,4,8,18,22-pentaazatetracyclo[14.3.1.1(3,7).1(9,13)]docosa-1(20),3(22),4,6,9(21),10,12,16,18-nonaen-12-yl]amino}-2-oxoethyl)-N-(2-methylphenyl)piperidine-1-carboxamide bis(trifluoroacetate)], for which the IC50 is 6.9 nM against TYK2, 3.1 nM in test [1], 0.5 nM in test [3] and above 100 nM in test [4]. In addition, in test [2], the “ALK % of inhibition at a concentration of 500 nM or 1 mM” value (shortened to “ALK % of inhibition”) was determined as 35%.

Consider `Cc1cccc(NC(=O)N2CCC(CC(=O)Nc3ccc4cc3CCc3cncc(c3)Nc3ncc(Cl)c(n3)N4)CC2)c1` [Example A150, 4-(2-{[6-Chloro-2,4,8,18,22-pentaazatetracyclo[14.3.1.1(3,7).1(9,13)]docosa-1(20),3(22),4,6,9(21),10,12,16,18-nonaen-12-yl]amino}-2-oxoethyl)-N-(3-methylphenyl)piperidine-1-carboxamide bis(trifluoroacetate)], for which the IC50 against TYK2 was 5.1 nM; in test [1] it was 1.1 nM; in test [3], 0.3 nM; in test [4], above 100 nM. Further, in test [2], the “ALK % of inhibition” value stood at 48%.

In the case of `Cc1ccc(NC(=O)N2CCC(CC(=O)Nc3ccc4cc3CCc3cncc(c3)Nc3ncc(Cl)c(n3)N4)CC2)cc1` [Example A151, 4-(2-{[6-Chloro-2,4,8,18,22-pentaazatetracyclo[14.3.1.1(3,7).1(9,13)]docosa-1(20),3(22),4,6,9(21),10,12,16,18-nonaen-12-yl]amino}-2-oxoethyl)-N-(4-methylphenyl)piperidine-1-carboxamide bis(trifluoroacetate)], the IC50 at TYK2 is 3.8 nM; in test [1], 1.4 nM; in test [3] it was 0.3 nM; in test [4], above 100 nM. Also, in test [2], the “ALK % of inhibition” value came out at 45%.

`COc1ccccc1NC(=O)N1CCC(CC(=O)Nc2ccc3cc2CCc2cncc(c2)Nc2ncc(Cl)c(n2)N3)CC1` [Example A152, 4-(2-{[6-Chloro-2,4,8,18,22-pentaazatetracyclo[14.3.1.1(3,7).1(9,13)]docosa-1(20),3(22),4,6,9(21),10,12,16,18-nonaen-12-yl]amino}-2-oxoethyl)-N-(2-methoxyphenyl)piperidine-1-carboxamide bis(trifluoroacetate)]: the IC50 at TYK2 is 2.4 nM; in test [1], 2.4 nM; in test [3], 0.4 nM; in test [4], above 100 nM. In addition, the “ALK % of inhibition” value in test [2] was found to be 37%.

On to `COc1cccc(NC(=O)N2CCC(CC(=O)Nc3ccc4cc3CCc3cncc(c3)Nc3ncc(Cl)c(n3)N4)CC2)c1` [Example A153, 4-(2-{[6-chloro-2,4,8,18,22-pentaazatetracyclo[14.3.1.1(3,7).1(9,13)]docosa-1(20),3(22),4,6,9(21),10,12,16,18-nonaen-12-yl]amino}-2-oxoethyl)-N-(3-methoxyphenyl)piperidine-1-carboxamide bis(trifluoroacetate)], for which the concentration for half-maximal inhibition (IC50) at TYK2 was 5.7 nM; in test [1], 1.1 nM; in test [3] it was 0.5 nM; in test [4], above 100 nM. Further, the “ALK % of inhibition” value in test [2] turned out to be 52%.

`COc1ccc(NC(=O)N2CCC(CC(=O)Nc3ccc4cc3CCc3cncc(c3)Nc3ncc(Cl)c(n3)N4)CC2)cc1` [Example A154, 4-(2-{[6-Chloro-2,4,8,18,22-pentaazatetracyclo[14.3.1.1(3,7).1(9,13)]docosa-1(20),3(22),4,6,9(21),10,12,16,18-nonaen-12-yl]amino}-2-oxoethyl)-N-(4-methoxyphenyl)piperidine-1-carboxamide bis(trifluoroacetate)]: the IC50 against TYK2 is 3.1 nM; in test [1] it was 2.6 nM; in test [3], 0.6 nM; in test [4], above 100 nM. Further, the “ALK % of inhibition” value in test [2] came out at 51%.

For the molecule `O=C(CC1CCN(C(=O)NCc2ccccc2)CC1)Nc1ccc2cc1CCc1cncc(c1)Nc1ncc(Cl)c(n1)N2` [Example A155, N-Benzyl-4-(2-{[6-chloro-2,4,8,18,22-pentaazatetracyclo[14.3.1.1(3,7).1(9,13)]docosa-1(20),3(22),4,6,9(21),10,12,16,18-nonaen-12-yl]amino}-2-oxoethyl)piperidine-1-carboxamide bis(trifluoroacetate)], the IC50 at TYK2 is 3.8 nM; in test [1], 4.2 nM; in test [3], 2.4 nM; in test [4], above 100 nM. Also, the “ALK % of inhibition” value in test [2] stood at 47%.

Turning to `Cc1noc(C)c1C(=O)N1CCC(CC(=O)Nc2ccc3cc2CCc2cncc(c2)Nc2ncc(Cl)c(n2)N3)CC1` [Example A156, N-[6-Chloro-2,4,8,18,22-pentaazatetracyclo[14.3.1.1(3,7).1(9,13)]docosa-1(20),3(22),4,6,9(21),10,12,16,18-nonaen-12-yl]-2-{1-[(3,5-dimethylisoxazol-4-yl)carbonyl]piperidin-4-yl}acetamide bis(trifluoroacetate)], the IC50 is 2500 nM on TYK2, 917 nM in test [1], 96 nM in test [3] and above 10000 nM in test [4]. Besides, in test [2], the “ALK % of inhibition” value is listed as 17%.

With `O=C(CC1CCN(c2nc3ccccc3s2)CC1)Nc1ccc2cc1CCc1cncc(c1)Nc1ncc(Cl)c(n1)N2` [Example A157, 2-[1-(1,3-Benzothiazol-2-yl)piperidin-4-yl]-N-[6-chloro-2,4,8,18,22-pentaazatetracyclo[14.3.1.1(3,7).1(9,13)]docosa-1(20),3(22),4,6,9(21),10,12,16,18-nonaen-12-yl]acetamide tris(trifluoroacetate)], the half-inhibitory concentration (IC50) is 617 nM against TYK2, 102 nM in test [1], 2.6 nM in test [3] and above 10000 nM in test [4]. Also, in test [2], the “ALK % of inhibition” value came out at 15%.

In the case of `O=C(CC1CCN(c2nc3cccnc3o2)CC1)Nc1ccc2cc1CCc1cncc(c1)Nc1ncc(Cl)c(n1)N2` [Example A158, N-[6-Chloro-2,4,8,18,22-pentaazatetracyclo[14.3.1.1(3,7).1(9,13)]docosa-1(20),3(22),4,6,9(21),10,12,16,18-nonaen-12-yl]-2-(1-[1,3]oxazolo[5,4-b]pyridin-2-ylpiperidin-4-yl)acetamide tris(trifluoroacetate)], the half-maximal inhibitory concentration (IC50) against TYK2 was 675 nM; in test [1] it was 244 nM; in test [3], 11 nM; in test [4] it was above 10000 nM. Besides, the “ALK % of inhibition” value in test [2] was 18%.

On to `Cc1cc(C(=O)N2CCC(CC(=O)Nc3ccc4cc3CCc3cncc(c3)Nc3ncc(Cl)c(n3)N4)CC2)n[nH]1` [Example A163, N-[6-Chloro-2,4,8,18,22-pentaazatetracyclo[14.3.1.1(3,7).1(9,13)]docosa-1(20),3(22),4,6,9(21),10,12,16,18-nonaen-12-yl]-2-{1-[(5-methyl-1H-pyrazol-3-yl)carbonyl]piperidin-4-yl}acetamide bis(trifluoroacetate)], for which the IC50 is 3 nM against TYK2, 36 nM in test [1], 0.5 nM in test [3] and above 100 nM in test [4]. In addition, in test [2], the “ALK % of inhibition” value came out at 29%.

In the case of `O=C(CC1CCN(c2ncc(F)cn2)CC1)Nc1ccc2cc1CCc1cncc(c1)Nc1ncc(Cl)c(n1)N2` [Example A169, N-[6-Chloro-2,4,8,18,22-pentaazatetracyclo[14.3.1.1(3,7).1(9,13)]docosa-1(20),3(22),4,6,9(21),10,12,16,18-nonaen-12-yl]-2-[1-(5-fluoropyrimidin-2-yl)piperidin-4-yl]acetamide tris(trifluoroacetate)], the IC50 at TYK2 is 319 nM; in test [1], 131 nM; in test [3] it was 26 nM; in test [4] it was above 1000 nM. Further, in test [2], the “ALK % of inhibition” value turned out to be 23%.

As to `O=C(CC1CCN(c2ccccn2)CC1)Nc1ccc2cc1CCc1cncc(c1)Nc1ncc(Cl)c(n1)N2` [Example A170, N-[6-Chloro-2,4,8,18,22-pentaazatetracyclo[14.3.1.1(3,7).1(9,13)]docosa-1(20),3(22),4,6,9(21),10,12,16,18-nonaen-12-yl]-2-(1-pyridin-2-ylpiperidin-4-yl)acetamide tris(trifluoroacetate)], the concentration for half-maximal inhibition (IC50) at TYK2 is 250 nM; in test [1], 165 nM; in test [3] it was 7.8 nM; in test [4], above 1000 nM. The “ALK % of inhibition” value in test [2] came to 37%.
